From PubChem BioAssay AID1963441 (Molecular Pharmacology Branch, DTP, NCI, 2024)

System: NCI-H1876 complex spheroid growth, % test/control
Assay: Anticancer human tumor NCI-H1876 cell line growth inhibition [Asc];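 also: compound exposure lasted 7 days starting three days after seeding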;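 as to viability, T/C: 100% = DMSO vehicle control wells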
Details: for IC50: curve of first compound; for viability, T/C: stronger effect = lower value
Method in brief: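 Complex spheroids combining tumor cells with HUVEC endothelial cells and human MSCs, at 37 degrees C, 5% CO2; agents tested alone or combined, half-log dilutions from at or near clinical Cmax, or 10 microM if Cmax unknown.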

[1] = second compound 0.0316 µM, first compound 0.00316 µM
[2] = second compound 0.0316 µM, first compound 0.01 µM
[3] = second compound 0.0316 µM, first compound 0.0316 µM
[4] = second compound 0.0316 µM, first compound 0.1 µM
[5] = second compound 0.0316 µM, first compound 0.316 µM
[6] = second compound 0.0316 µM, first compound 1 µM
[7] = second compound 0.1 µM, first compound 0.00316 µM
[8] = second compound 0.1 µM, first compound 0.01 µM
[9] = second compound 0.1 µM, first compound 0.0316 µM
[10] = second compound 0.1 µM, first compound 0.1 µM
[11] = second compound 0.1 µM, first compound 0.316 µM
[12] = second compound 0.1 µM, first compound 1 µM
[13] = second compound 0.316 µM, first compound 0.00316 µM
[14] = second compound 0.316 µM, first compound 0.01 µM
[15] = second compound 0.316 µM, first compound 0.0316 µM
[16] = second compound 0.316 µM, first compound 0.1 µM
[17] = second compound 0.316 µM, first compound 0.316 µM
[18] = second compound 0.316 µM, first compound 1 µM
[19] = second compound 1 µM, first compound 0.00316 µM
[20] = second compound 1 µM, first compound 0.01 µM
[21] = second compound 1 µM, first compound 0.0316 µM
[22] = second compound 1 µM, first compound 0.1 µM
[23] = second compound 1 µM, first compound 0.316 µM
[24] = second compound 1 µM, first compound 1 µM
[25] = second compound 3.16 µM, first compound 0.00316 µM
[26] = second compound 3.16 µM, first compound 0.01 µM
[27] = second compound 3.16 µM, first compound 0.0316 µM
[28] = second compound 3.16 µM, first compound 0.1 µM
[29] = second compound 3.16 µM, first compound 0.316 µM
[30] = second compound 3.16 µM, first compound 1 µM
[31] = second compound 10 µM, first compound 0.00316 µM
[32] = second compound 10 µM, first compound 0.01 µM
[33] = second compound 10 µM, first compound 0.0316 µM
[34] = second compound 10 µM, first compound 0.1 µM
[35] = second compound 10 µM, first compound 0.316 µM
[36] = second compound 10 µM, first compound 1 µM

`CCN1CCN(Cc2ccc(Nc3ncc(F)c(-c4cc(F)c5nc(C)n(C(C)C)c5c4)n3)nc2)CC1` + Cc1c(S(C)(=O)=O)c(-c2cc(F)cc(N3CCN(c4ccc(NS(=O)(=O)c5ccc(NC(CCN6CCC(C(=O)OCCCP(=O)(O)O)CC6)CSc6ccccc6)c(S(=O)(=O)C(F)(F)F)c5)cc4)CC3)c2)c(-c2ccc(Cl)cc2)n1C(C)C showed an IC50 (second compound 0.0316 µM) of over 1000 nM, an IC50 (second compound 0.1 µM) of over 1000 nM and an IC50 (second compound 0.316 µM) of over 1000 nM. The IC50 (second compound 1 µM) was over 1000 nM, the IC50 (second compound 3.16 µM) was over 1000 nM and the IC50 (second compound 10 µM) was over 1000 nM. It also gave a viability, T/C [1] of 97.1%, a viability, T/C [2] of 94% and a viability, T/C [3] of 97.9%. For the same molecule, the viability, T/C [4] was 98.7%, the viability, T/C [5] was 117% and the viability, T/C [6] was 130%. For the same molecule, the viability, T/C [7] was 98.7%, the viability, T/C [8] was 101% and the viability, T/C [9] was 100%. For the same molecule, the viability, T/C [10] was 112%, the viability, T/C [11] was 121% and the viability, T/C [12] was 127%. The viability, T/C [13] was 106%, the viability, T/C [14] was 96.2% and the viability, T/C [15] was 120%. It also gave a viability, T/C [16] of 106%, a viability, T/C [17] of 115% and a viability, T/C [18] of 125%. The viability, T/C [19] was 101%, the viability, T/C [20] was 100% and the viability, T/C [21] was 98.1%. For the same molecule, the viability, T/C [22] was 109%, the viability, T/C [23] was 121% and the viability, T/C [24] was 116%. For the same molecule, the viability, T/C [25] was 111%, the viability, T/C [26] was 104% and the viability, T/C [27] was 91.8%. For the same molecule, the viability, T/C [28] was 103%, the viability, T/C [29] was 114% and the viability, T/C [30] was 110%. For the same molecule, the viability, T/C [31] was 105%, the viability, T/C [32] was 104% and the viability, T/C [33] was 94.7%. The viability, T/C [34] was 111%, the viability, T/C [35] was 122% and the viability, T/C [36] was 102%.
In the case of `Cn1ncnc1[C@H]1c2n[nH]c(=O)c3cc(F)cc(c23)N[C@@H]1c1ccc(F)cc1` + Cc1c(S(C)(=O)=O)c(-c2cc(F)cc(N3CCN(c4ccc(NS(=O)(=O)c5ccc(NC(CCN6CCC(C(=O)OCCCP(=O)(O)O)CC6)CSc6ccccc6)c(S(=O)(=O)C(F)(F)F)c5)cc4)CC3)c2)c(-c2ccc(Cl)cc2)n1C(C)C, the IC50 (second compound 0.0316 µM) is reported as over 100 nM, the IC50 (second compound 0.1 µM) is reported as over 100 nM and the IC50 (second compound 0.316 µM) is reported as over 100 nM. For the same molecule, the IC50 (second compound 1 µM) was over 100 nM, the IC50 (second compound 3.16 µM) was over 100 nM and the IC50 (second compound 10 µM) was over 100 nM. For the same molecule, the viability, T/C (second compound 0.0316 µM, first compound 0.000316 µM) was 89.8%, the viability, T/C (second compound 0.0316 µM, first compound 0.001 µM) was 82.8% and the viability, T/C [1] was 101%. The viability, T/C [2] was 94.2%, the viability, T/C [3] was 106% and the viability, T/C [4] was 81.6%. For the same molecule, the viability, T/C (second compound 0.1 µM, first compound 0.000316 µM) was 100%, the viability, T/C (second compound 0.1 µM, first compound 0.001 µM) was 92.9% and the viability, T/C [7] was 98.4%. It also gave a viability, T/C [8] of 111%, a viability, T/C [9] of 96.7% and a viability, T/C [10] of 86.5%. It also gave a viability, T/C (second compound 0.316 µM, first compound 0.000316 µM) of 92%, a viability, T/C (second compound 0.316 µM, first compound 0.001 µM) of 101% and a viability, T/C [13] of 95.5%. For the same molecule, the viability, T/C [14] was 110%, the viability, T/C [15] was 94.7% and the viability, T/C [16] was 74.3%. It also gave a viability, T/C (second compound 1 µM, first compound 0.000316 µM) of 110%, a viability, T/C (second compound 1 µM, first compound 0.001 µM) of 89.8% and a viability, T/C [19] of 94.7%. It also gave a viability, T/C [20] of 94.7%, a viability, T/C [21] of 91.7% and a viability, T/C [22] of 64%. It also gave a viability, T/C (second compound 3.16 µM, first compound 0.000316 µM) of 94.2%, a viability, T/C (second compound 3.16 µM, first compound 0.001 µM) of 95.7% and a viability, T/C [25] of 94.1%. It also gave a viability, T/C [26] of 92.6%, a viability, T/C [27] of 81% and a viability, T/C [28] of 53.7%. It also gave a viability, T/C (second compound 10 µM, first compound 0.000316 µM) of 100%, a viability, T/C (second compound 10 µM, first compound 0.001 µM) of 106% and a viability, T/C [31] of 84.2%. It also gave a viability, T/C [32] of 95.9%, a viability, T/C [33] of 80.4% and a viability, T/C [34] of 55.8%.
Work on `O=C(c1ccc(F)c(F)c1Nc1ccc(I)cc1F)N1CC(O)([C@@H]2CCCCN2)C1` + Cc1c(S(C)(=O)=O)c(-c2cc(F)cc(N3CCN(c4ccc(NS(=O)(=O)c5ccc(NC(CCN6CCC(C(=O)OCCCP(=O)(O)O)CC6)CSc6ccccc6)c(S(=O)(=O)C(F)(F)F)c5)cc4)CC3)c2)c(-c2ccc(Cl)cc2)n1C(C)C yielded an IC50 (second compound 0.0316 µM) of over 1000 nM, an IC50 (second compound 0.1 µM) of over 1000 nM and an IC50 (second compound 0.316 µM) of over 1000 nM. The IC50 (second compound 1 µM) was over 1000 nM, the IC50 (second compound 3.16 µM) was over 1000 nM and the IC50 (second compound 10 µM) was over 1000 nM. For the same molecule, the viability, T/C [1] was 102%, the viability, T/C [2] was 98.9% and the viability, T/C [3] was 108%. For the same molecule, the viability, T/C [4] was 92.3%, the viability, T/C [5] was 85.3% and the viability, T/C [6] was 71.7%. It also gave a viability, T/C [7] of 95.4%, a viability, T/C [8] of 97.5% and a viability, T/C [9] of 94.6%. The viability, T/C [10] was 97.6%, the viability, T/C [11] was 86.9% and the viability, T/C [12] was 81%. It also gave a viability, T/C [13] of 96.5%, a viability, T/C [14] of 102% and a viability, T/C [15] of 89.5%. It also gave a viability, T/C [16] of 102%, a viability, T/C [17] of 84.2% and a viability, T/C [18] of 78.4%. The viability, T/C [19] was 101%, the viability, T/C [20] was 102% and the viability, T/C [21] was 93.9%. For the same molecule, the viability, T/C [22] was 92.1%, the viability, T/C [23] was 92% and the viability, T/C [24] was 77.1%. For the same molecule, the viability, T/C [25] was 109%, the viability, T/C [26] was 98.6% and the viability, T/C [27] was 91%. For the same molecule, the viability, T/C [28] was 85.8%, the viability, T/C [29] was 94.2% and the viability, T/C [30] was 74.9%. It also gave a viability, T/C [31] of 103%, a viability, T/C [32] of 92.2% and a viability, T/C [33] of 92.5%. For the same molecule, the viability, T/C [34] was 102%, the viability, T/C [35] was 93.5% and the viability, T/C [36] was 79.5%.
